Measurements published in patent US20160015771A1, “METHOD OF TREATING OPTIC NERVE DAMAGE, OPHTHALMIC ISCHEMIA OR OPHTHALMIC REPERFUSION INJURY” (Curonz Holdings Company Limited, priority 2012, published 2016).

How the values were obtained:
[1] = test system: ischemia-related optic nerve injury; conditions: topically or intraperitoneal (IP) applied formulations; cited from earlier work
[2] = test system: Retinal Ganglion Cells (RGC); experiment: Retinal ganglion cell (RGC) survival by BRN3A staining of flat-mounted retinae after optic nerve ligation/reperfusion; type: in vivo, Male Long-Evans rats; conditions: 8 days after injury
Protocol: Ischemia was maintained for 45 minutes.
At the end of the study, the animals were euthanized by intraperitoneal injection of overdosed pentobarbital. After euthanasia at day 8 after optic nerve ligation injury, the retinae of both eyes of N=6 animals per cohort were fixed in formalin 4% (1 h at room temperature), dissected and flat-mounted. The flat-mounted preparation was incubated with an Alexa 594 conjugated anti-BRN3A (Brain-specific homeobox/POU domain protein 3A, Chemicon, cat #mAb1585) to visualize the Retinal Ganglion Cells (RGC). Fluorescence was assessed by an Apotome microscope at magnification×20 (Zeiss) within twelve randomly selected respective microscopic fields per subject. The number of surviving RGC was determined with Axio Vision 4.2 software in the respective retinae areas.
Animals were sacrificed at day 8 and retinae were analysed for BrN3A (Brain-specific homeobox/POU domain protein 3A) protein expression patterns that are specific for retinal ganglion cells (RGCs). 12 fields per retina were evaluated.

## Brc1c(NC2=NCCN2)ccc2nccnc12 [Brimonidine]
[1]
  neuroprotective activity: neuroprotective
[2]; relative to non-ischemic eyes, saline group 19.6%
  total RGCs rescued: 39.6%
[2]; Brimonidine prophylactically applied, 1 mg/kg IP 1 h before ischemia, n=5, non-ischemic eyes 2158 RGCs/mm2
  RGC density: 855.5±30.7 RGCs/mm2
